Reference: ChEMBL document CHEMBL4613209, “Quinolone hybrids and their anti-cancer activities: An overview” (Eur J Med Chem, 2019)

Columns and labels:
Type in all cases: functional, cell-based
[1] = system: Hep 3B2; assay: Cytotoxicity against human Hep3B cells assessed as reduction in cell viability by MTT assay
[2] = system: CAPAN-1; assay: Cytotoxicity against human Capan1 cells assessed as reduction in cell viability by MTT assay
[3] = system: SMMC-7721; assay: Cytotoxicity against human SMMC7721 cells assessed as reduction in cell viability by MTT assay
[4] = system: L1210; assay: Cytotoxicity against mouse L1210 cells assessed as reduction in cell viability by MTT assay
[5] = system: HL-60; assay: Cytotoxicity against human HL60 cells assessed as reduction in cell viability by MTT assay

Row | SMILES | IC50 [1] [µM] | IC50 [2] [µM] | IC50 [3] [µM] | IC50 [4] [µM] | IC50 [5] [µM]
1 | COc1ccccc1-c1csc2nc(-c3cn4c5c(c(N6CCN(C)CC6)c(F)cc5c3=O)OCC4C)nn12 (centres undefined) | 3.6 to 56.8 | 3.6 to 56.8 | 3.6 to 56.8 | 3.6 to 56.8 | 3.6 to 56.8
2 | Cc1ccc(-c2nnc(CSc3nnc(-c4cn5c6c(c(N7CCN(C)CC7)c(F)cc6c4=O)OCC5C)o3)o2)cc1 (centres undefined) | – | – | 5.7 to 24.7 | 5.7 to 24.7 | 5.7 to 24.7
3 | CCn1cc(-c2nc3scc(-c4ccccc4OC)n3n2)c(=O)c2cc(F)c(N3CCN(C)CC3)cc21 | 3.6 to 56.8 | 3.6 to 56.8 | 3.6 to 56.8 | 3.6 to 56.8 | 3.6 to 56.8
4 | Cc1ccc(-c2csc3nc(-c4cn5c6c(c(N7CCN(C)CC7)c(F)cc6c4=O)OCC5C)nn23)cc1 (centres undefined) | 3.6 to 56.8 | 3.6 to 56.8 | 3.6 to 56.8 | 3.6 to 56.8 | 3.6 to 56.8
5 | CCn1cc(-c2nnc(SCc3nnc(-c4ccc([N+](=O)[O-])cc4)o3)[nH]2)c(=O)c2cc(F)c(N3CCN(C)CC3)cc21 | 3.8 to 35.2 | 3.8 to 35.2 | 3.8 to 35.2 | 3.8 to 35.2 | 3.8 to 35.2
6 | CCn1cc(-c2nnc(SCc3nnc(-c4ccc(OC)cc4)o3)[nH]2)c(=O)c2cc(F)c(N3CCN(C)CC3)cc21 | 3.8 to 35.2 | 3.8 to 35.2 | 3.8 to 35.2 | 3.8 to 35.2 | 3.8 to 35.2
7 | CCn1cc(-c2nc3scc(-c4ccc(O)cc4)n3n2)c(=O)c2cc(F)c(N3CCN(C)CC3)cc21 | 3.6 to 56.8 | 3.6 to 56.8 | 3.6 to 56.8 | 3.6 to 56.8 | 3.6 to 56.8
8 | CCn1cc(-c2nnc(SCc3nnc(-c4cc(OC)c(OC)c(OC)c4)o3)[nH]2)c(=O)c2cc(F)c(N3CCN(C)CC3)cc21 | 3.8 to 35.2 | 3.8 to 35.2 | 3.8 to 35.2 | 3.8 to 35.2 | 3.8 to 35.2
9 | Cc1ccc(-c2csc3nc(-c4cn(C5CC5)c5cc(N6CCN(C)CC6)c(F)cc5c4=O)nn23)cc1 | 3.6 to 56.8 | 3.6 to 56.8 | 3.6 to 56.8 | 3.6 to 56.8 | 3.6 to 56.8
10 | COc1ccc(-c2csc3nc(-c4cn5c6c(c(N7CCN(C)CC7)c(F)cc6c4=O)OCC5C)nn23)cc1 (centres undefined) | 26.7 to 35.7 | 26.7 to 35.7 | 26.7 to 35.7 | 26.7 to 35.7 | 26.7 to 35.7
11 | COc1ccccc1-c1nnc(CSc2nnc(-c3cn4c5c(c(N6CCN(C)CC6)c(F)cc5c3=O)OCC4C)o2)o1 (centres undefined) | – | – | 5.7 to 24.7 | 5.7 to 24.7 | 5.7 to 24.7
12 | CC1COc2c(N3CCN(C)CC3)c(F)cc3c(=O)c(-c4nc5scc(-c6ccc(O)cc6)n5n4)cn1c23 (centres undefined) | 3.6 to 56.8 | 3.6 to 56.8 | 3.6 to 56.8 | 3.6 to 56.8 | 3.6 to 56.8
13 | CC1COc2c(N3CCN(C)CC3)c(F)cc3c(=O)c(-c4nc5scc(-c6ccc7c(c6)OCO7)n5n4)cn1c23 (centres undefined) | 3.6 to 56.8 | 3.6 to 56.8 | 3.6 to 56.8 | 3.6 to 56.8 | 3.6 to 56.8
14 | CCn1cc(-c2nnc(SCc3nnc(-c4ccc(C)cc4)o3)[nH]2)c(=O)c2cc(F)c(N3CCN(C)CC3)cc21 | 3.8 to 35.2 | 3.8 to 35.2 | 3.8 to 35.2 | 3.8 to 35.2 | 3.8 to 35.2
15 | CCn1cc(-c2nnc(SCc3nnc(-c4ccc(F)cc4)o3)[nH]2)c(=O)c2cc(F)c(N3CCN(C)CC3)cc21 | 3.8 to 35.2 | 3.8 to 35.2 | 3.8 to 35.2 | 3.8 to 35.2 | 3.8 to 35.2
16 | CC1COc2c(N3CCN(C)CC3)c(F)cc3c(=O)c(-c4nnc(SCc5nnc(-c6ccc(Cl)cc6)o5)o4)cn1c23 (centres undefined) | – | – | 5.7 to 24.7 | 5.7 to 24.7 | 5.7 to 24.7
17 | CCn1cc(-c2nc3scc(-c4ccc(C)cc4)n3n2)c(=O)c2cc(F)c(N3CCN(C)CC3)cc21 | 3.6 to 56.8 | 3.6 to 56.8 | 3.6 to 56.8 | 3.6 to 56.8 | 3.6 to 56.8
18 | CCn1cc(-c2nc(SCc3nnc(-c4ccccc4OC)o3)n(CN(C)C)n2)c(=O)c2cc(F)c(N3CCN(C)CC3)cc21 | 1.5 to 24.5 | 1.5 to 24.5 | 1.5 to 24.5 | 1.5 to 24.5 | 1.5 to 24.5
19 | CN1CCN(c2cc3c(cc2F)c(=O)c(-c2nnc(SCc4nnc(-c5ccc(Cl)cc5)o4)o2)cn3C2CC2)CC1 | – | – | 2.4 to 32.4 | 2.4 to 32.4 | 2.4 to 32.4
20 | COc1ccc(-c2nnc(CSc3nnc(-c4cn5c6c(c(N7CCN(C)CC7)c(F)cc6c4=O)OCC5C)o3)o2)cc1 (centres undefined) | – | – | 5.7 to 24.7 | 5.7 to 24.7 | 5.7 to 24.7
21 | COc1cc(-c2nnc(CSc3nnc(-c4cn5c6c(c(N7CCN(C)CC7)c(F)cc6c4=O)OCC5C)o3)o2)cc(OC)c1OC (centres undefined) | – | – | 5.7 to 24.7 | 5.7 to 24.7 | 5.7 to 24.7
22 | CC1COc2c(N3CCN(C)CC3)c(F)cc3c(=O)c(-c4nnc(SCc5nnc(-c6ccccc6)o5)o4)cn1c23 (centres undefined) | – | – | 5.7 to 24.7 | 5.7 to 24.7 | 5.7 to 24.7
23 | COc1cc(-c2nnc(CSc3nnc(-c4cn(C5CC5)c5cc(N6CCN(C)CC6)c(F)cc5c4=O)o3)o2)cc(OC)c1OC | – | – | 2.4 to 32.4 | 2.4 to 32.4 | 2.4 to 32.4
